Reference: PubChem BioAssay AID1918939 (Molecular Pharmacology Branch, DTP, NCI, 2023)

Tested on: 653999-131-R-J2-PDC complex spheroid viability
Test: Anticancer human tumor 653999-131-R-J2-PDC patient-derived lung adenocarcinoma cell line growth inhibition
Conditions: for IC50: curve of first compound; for viability, T/C: stronger effect = lower value
Procedure, shortened: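 Drug combinations with the LSD1 inhibitor iadademstat tested on tumor cells co-cultured as spheroids with endothelial cells and mesenchymal stem cells. Concentrations descended in half-log increments from clinical Cmax or 10 microM.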

[1] = second compound 0.1 µM, first compound 0.0316 µM
[2] = second compound 0.1 µM, first compound 0.1 µM
[3] = second compound 0.1 µM, first compound 0.316 µM
[4] = second compound 0.1 µM, first compound 1 µM
[5] = second compound 0.1 µM, first compound 3.16 µM
[6] = second compound 0.1 µM, first compound 10 µM
[7] = second compound 0.316 µM, first compound 0.0316 µM
[8] = second compound 0.316 µM, first compound 0.1 µM
[9] = second compound 0.316 µM, first compound 0.316 µM
[10] = second compound 0.316 µM, first compound 1 µM
[11] = second compound 0.316 µM, first compound 3.16 µM
[12] = second compound 0.316 µM, first compound 10 µM
[13] = second compound 1 µM, first compound 0.0316 µM
[14] = second compound 1 µM, first compound 0.1 µM
[15] = second compound 1 µM, first compound 0.316 µM
[16] = second compound 1 µM, first compound 1 µM
[17] = second compound 1 µM, first compound 3.16 µM
[18] = second compound 1 µM, first compound 10 µM
[19] = second compound 3.16 µM, first compound 0.0316 µM
[20] = second compound 3.16 µM, first compound 0.1 µM
[21] = second compound 3.16 µM, first compound 0.316 µM
[22] = second compound 3.16 µM, first compound 1 µM
[23] = second compound 3.16 µM, first compound 3.16 µM
[24] = second compound 3.16 µM, first compound 10 µM
[25] = second compound 10 µM, first compound 0.0316 µM
[26] = second compound 10 µM, first compound 0.1 µM
[27] = second compound 10 µM, first compound 0.316 µM
[28] = second compound 10 µM, first compound 1 µM
[29] = second compound 10 µM, first compound 3.16 µM
[30] = second compound 10 µM, first compound 10 µM
[31] = second compound 0.1 µM, first compound 0.00949 µM
[32] = second compound 0.1 µM, first compound 0.03 µM
[33] = second compound 0.1 µM, first compound 0.0949 µM
[34] = second compound 0.1 µM, first compound 0.3 µM
[35] = second compound 0.316 µM, first compound 0.00949 µM
[36] = second compound 0.316 µM, first compound 0.03 µM
[37] = second compound 0.316 µM, first compound 0.0949 µM
[38] = second compound 0.316 µM, first compound 0.3 µM
[39] = second compound 1 µM, first compound 0.00949 µM
[40] = second compound 1 µM, first compound 0.03 µM
[41] = second compound 1 µM, first compound 0.0949 µM
[42] = second compound 1 µM, first compound 0.3 µM
[43] = second compound 3.16 µM, first compound 0.00949 µM
[44] = second compound 3.16 µM, first compound 0.03 µM
[45] = second compound 3.16 µM, first compound 0.0949 µM
[46] = second compound 3.16 µM, first compound 0.3 µM
[47] = second compound 10 µM, first compound 0.00949 µM
[48] = second compound 10 µM, first compound 0.03 µM
[49] = second compound 10 µM, first compound 0.0949 µM
[50] = second compound 10 µM, first compound 0.3 µM
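Also: spheroids exposed to agents for seven days before readout.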

SMILES: CC1(C)CCC(CN2CCN(c3ccc(C(=O)NS(=O)(=O)c4ccc(NCC5CCOCC5)c([N+](=O)[O-])c4)c(Oc4cnc5[nH]ccc5c4)c3)CC2)=C(c2ccc(Cl)cc2)C1 + NC1CCC(NC2CC2c2ccccc2)CC1
- IC50 (second compound 0.1 µM): 9330 nM
- IC50 (second compound 0.316 µM): 8460 nM
- IC50 (second compound 1 µM): 8730 nM
- IC50 (second compound 3.16 µM): 7790 nM
- IC50 (second compound 10 µM): > 10000 nM
- viability, T/C [1]: 93.5%
- viability, T/C [2]: 82.4%
- viability, T/C [3]: 86.9%
- viability, T/C [4]: 100%
- viability, T/C [5]: 94.8%
- viability, T/C [6]: 47.3%
- viability, T/C [7]: 76.8%
- viability, T/C [8]: 89.7%
- viability, T/C [9]: 97.7%
- viability, T/C [10]: 92%
- viability, T/C [11]: 92.2%
- viability, T/C [12]: 43.2%
- viability, T/C [13]: 77%
- viability, T/C [14]: 83.4%
- viability, T/C [15]: 97.2%
- viability, T/C [16]: 96.5%
- viability, T/C [17]: 73.7%
- viability, T/C [18]: 46.8%
- viability, T/C [19]: 97.9%
- viability, T/C [20]: 88.1%
- viability, T/C [21]: 102%
- viability, T/C [22]: 94.2%
- viability, T/C [23]: 74.5%
- viability, T/C [24]: 43.2%
- viability, T/C [25]: 89%
- viability, T/C [26]: 84.2%
- viability, T/C [27]: 87.4%
- viability, T/C [28]: 87.3%
- viability, T/C [29]: 78.1%
- viability, T/C [30]: 50%

SMILES: CC1COCCN1c1cc(C2(S(C)(=N)=O)CC2)nc(-c2ccnc3[nH]ccc23)n1 (stereo not given) + NC1CCC(NC2CC2c2ccccc2)CC1
- IC50 (second compound 0.1 µM): 736 nM
- IC50 (second compound 0.316 µM): 832 nM
- IC50 (second compound 1 µM): 840 nM
- IC50 (second compound 3.16 µM): 674 nM
- IC50 (second compound 10 µM): 698 nM
- viability, T/C [1]: 104%
- viability, T/C [2]: 81.3%
- viability, T/C [3]: 63.7%
- viability, T/C [4]: 46.4%
- viability, T/C [5]: 32.8%
- viability, T/C [6]: 34.1%
- viability, T/C [7]: 94.1%
- viability, T/C [8]: 80.1%
- viability, T/C [9]: 73.8%
- viability, T/C [10]: 45.5%
- viability, T/C [11]: 30%
- viability, T/C [12]: 31%
- viability, T/C [13]: 102%
- viability, T/C [14]: 81%
- viability, T/C [15]: 67.4%
- viability, T/C [16]: 46.3%
- viability, T/C [17]: 34.1%
- viability, T/C [18]: 28.2%
- viability, T/C [19]: 101%
- viability, T/C [20]: 89.4%
- viability, T/C [21]: 68.9%
- viability, T/C [22]: 39.1%
- viability, T/C [23]: 33.6%
- viability, T/C [24]: 32.3%
- viability, T/C [25]: 103%
- viability, T/C [26]: 66.4%
- viability, T/C [27]: 72.5%
- viability, T/C [28]: 43.8%
- viability, T/C [29]: 30%
- viability, T/C [30]: 27.4%

SMILES: CCN(c1cc(-c2ccc(CN3CCOCC3)cc2)cc(C(=O)NCc2c(C)cc(C)[nH]c2=O)c1C)C1CCOCC1 + NC1CCC(NC2CC2c2ccccc2)CC1
- IC50 (second compound 0.1 µM): > 3000 nM
- IC50 (second compound 0.316 µM): > 3000 nM
- IC50 (second compound 1 µM): > 3000 nM
- IC50 (second compound 3.16 µM): > 3000 nM
- IC50 (second compound 10 µM): > 3000 nM
- viability, T/C [31]: 97.1%
- viability, T/C [32]: 93%
- viability, T/C [33]: 98.2%
- viability, T/C [34]: 94.9%
- viability, T/C (second compound 0.1 µM, first compound 0.949 µM): 80.8%
- viability, T/C (second compound 0.1 µM, first compound 3 µM): 74.9%
- viability, T/C [35]: 80.6%
- viability, T/C [36]: 88.9%
- viability, T/C [37]: 91.8%
- viability, T/C [38]: 80.9%
- viability, T/C (second compound 0.316 µM, first compound 0.949 µM): 87.6%
- viability, T/C (second compound 0.316 µM, first compound 3 µM): 72.2%
- viability, T/C [39]: 77.6%
- viability, T/C [40]: 101%
- viability, T/C [41]: 92.2%
- viability, T/C [42]: 76.3%
- viability, T/C (second compound 1 µM, first compound 0.949 µM): 70.2%
- viability, T/C (second compound 1 µM, first compound 3 µM): 78.8%
- viability, T/C [43]: 96.1%
- viability, T/C [44]: 94.5%
- viability, T/C [45]: 108%
- viability, T/C [46]: 84%
- viability, T/C (second compound 3.16 µM, first compound 0.949 µM): 76.6%
- viability, T/C (second compound 3.16 µM, first compound 3 µM): 83.9%
- viability, T/C [47]: 87.7%
- viability, T/C [48]: 84.9%
- viability, T/C [49]: 85.5%
- viability, T/C [50]: 76%
- viability, T/C (second compound 10 µM, first compound 0.949 µM): 70%
- viability, T/C (second compound 10 µM, first compound 3 µM): 82.4%

SMILES: Cn1ncnc1C1c2n[nH]c(=O)c3cc(F)cc(c23)NC1c1ccc(F)cc1 (stereo not given) + NC1CCC(NC2CC2c2ccccc2)CC1
- IC50 (second compound 0.1 µM): > 100 nM
- IC50 (second compound 0.316 µM): > 100 nM
- IC50 (second compound 1 µM): > 100 nM
- IC50 (second compound 3.16 µM): > 100 nM
- IC50 (second compound 10 µM): > 100 nM
- viability, T/C (second compound 0.1 µM, first compound 0.000316 µM): 86.9%
- viability, T/C (second compound 0.1 µM, first compound 0.001 µM): 86.9%
- viability, T/C (second compound 0.1 µM, first compound 0.00316 µM): 85.6%
- viability, T/C (second compound 0.1 µM, first compound 0.01 µM): 73%
- viability, T/C [1]: 80.9%
- viability, T/C [2]: 71.4%
- viability, T/C (second compound 0.316 µM, first compound 0.000316 µM): 85.4%
- viability, T/C (second compound 0.316 µM, first compound 0.001 µM): 82.5%
- viability, T/C (second compound 0.316 µM, first compound 0.00316 µM): 82.1%
- viability, T/C (second compound 0.316 µM, first compound 0.01 µM): 87.2%
- viability, T/C [7]: 73.9%
- viability, T/C [8]: 86%
- viability, T/C (second compound 1 µM, first compound 0.000316 µM): 95.6%
- viability, T/C (second compound 1 µM, first compound 0.001 µM): 81.3%
- viability, T/C (second compound 1 µM, first compound 0.00316 µM): 82.9%
- viability, T/C (second compound 1 µM, first compound 0.01 µM): 74.9%
- viability, T/C [13]: 75.9%
- viability, T/C [14]: 78.1%
- viability, T/C (second compound 3.16 µM, first compound 0.000316 µM): 94.6%
- viability, T/C (second compound 3.16 µM, first compound 0.001 µM): 91.8%
- viability, T/C (second compound 3.16 µM, first compound 0.00316 µM): 91.1%
- viability, T/C (second compound 3.16 µM, first compound 0.01 µM): 87.3%
- viability, T/C [19]: 76.7%
- viability, T/C [20]: 72.1%
- viability, T/C (second compound 10 µM, first compound 0.000316 µM): 96.9%
- viability, T/C (second compound 10 µM, first compound 0.001 µM): 99.4%
- viability, T/C (second compound 10 µM, first compound 0.00316 µM): 97.6%
- viability, T/C (second compound 10 µM, first compound 0.01 µM): 84.5%
- viability, T/C [25]: 72%
- viability, T/C [26]: 78.2%

SMILES: Nc1ncn(C2CC(O)C(CO)S2)c(=O)n1 (stereo not given) + NC1CCC(NC2CC2c2ccccc2)CC1
- IC50 (second compound 0.1 µM): > 300 nM
- IC50 (second compound 0.316 µM): > 300 nM
- IC50 (second compound 1 µM): > 300 nM
- IC50 (second compound 3.16 µM): > 300 nM
- IC50 (second compound 10 µM): > 300 nM
- viability, T/C (second compound 0.1 µM, first compound 0.000949 µM): 83.8%
- viability, T/C (second compound 0.1 µM, first compound 0.003 µM): 109%
- viability, T/C [31]: 90.8%
- viability, T/C [32]: 74.8%
- viability, T/C [33]: 70.4%
- viability, T/C [34]: 50.6%
- viability, T/C (second compound 0.316 µM, first compound 0.000949 µM): 86.6%
- viability, T/C (second compound 0.316 µM, first compound 0.003 µM): 81.6%
- viability, T/C [35]: 87.5%
- viability, T/C [36]: 74.5%
- viability, T/C [37]: 58%
- viability, T/C [38]: 51.9%
- viability, T/C (second compound 1 µM, first compound 0.000949 µM): 89.5%
- viability, T/C (second compound 1 µM, first compound 0.003 µM): 94%
- viability, T/C [39]: 86.3%
- viability, T/C [40]: 78.7%
- viability, T/C [41]: 67.8%
- viability, T/C [42]: 55.5%
- viability, T/C (second compound 3.16 µM, first compound 0.000949 µM): 99%
- viability, T/C (second compound 3.16 µM, first compound 0.003 µM): 92%
- viability, T/C [43]: 85.8%
- viability, T/C [44]: 81.3%
- viability, T/C [45]: 68.2%
- viability, T/C [46]: 54.7%
- viability, T/C (second compound 10 µM, first compound 0.000949 µM): 88.9%
- viability, T/C (second compound 10 µM, first compound 0.003 µM): 112%
- viability, T/C [47]: 88.8%
- viability, T/C [48]: 84.7%
- viability, T/C [49]: 63.7%
- viability, T/C [50]: 58.6%
